Source: US5536729A, “Rapamycin formulations for oral administration” (priority 1994, dated 1996)

Key:
[1] = design: species or system Cynomolgus monkeys; settings: cynomolgus monkey, in vivo, po, 50 mg/kg
Protocol: Cynomolgus monkeys were administered the formulation above at a dose of 0.25 mg/kg of rapamycin and the following serum concentrations were determined at the indicated time after dosing.
Cynomolgus monkeys were administered the above formulation at a dose of 50 mg/kg of rapamycin and the following serum concentrations were determined at the indicated time after dosing.
Cynomolgus monkeys were administered this second comparative formulation at a dose of 50 mg/kg of rapamycin and the following serum concentrations were determined at the indicated time after dosing.

[2] = test system: smooth muscle cell proliferation and intimal thickening; settings: following vascular injury; Morris 1992; cited from earlier work
Microsporum gypseum = settings: cited from earlier work
adjuvant arthritis = settings: model for rheumatoid arthritis; Martel 1977; cited from earlier work
IgE-like antibodies = settings: Martel 1977; cited from earlier work
transplant rejection = settings: useful in preventing transplant rejection; cited from earlier work
[3] = cited from earlier work
Candida albicans = settings: cited from earlier work
tumor = settings: in vivo; cited from earlier work
pulmonary inflammation = settings: U.S. Pat. No. 5,080,899; cited from earlier work
[4] = test system: experimental allergic encephalomyelitis; settings: model for multiple sclerosis; Martel 1977; cited from earlier work
[5] = test system: insulin dependent diabetes mellitus; settings: Fifth Int. Conf. Inflamm. Res. Assoc. 1990; cited from earlier work
thymocyte = settings: in vitro; cited from earlier work
[6] = test system: systemic lupus erythematosus; settings: U.S. Pat. No. 5,078,999; cited from earlier work
[7] = test system: rejection in vivo in allograft transplantation; settings: Calne 1989; Morris and Meiser 1989; cited from earlier work

| Structure (SMILES) | Rapamycin Concentration in Monkey Serum [1] | preventing or treating smooth muscle cell proliferation and intimal thickening [2] | effect on growth of fungi (Microsporum gypseum) | efficacy in adjuvant arthritis model (adjuvant arthritis) | formation of IgE-like antibodies (IgE-like antibodies) | immunosuppressive effect (transplant rejection) | activity in vivo [3] | effect on growth of fungi (Candida albicans) | antitumor activity (tumor) | preventing or treating pulmonary inflammation (pulmonary inflammation) | efficacy in experimental allergic encephalomyelitis model [4] | preventing or treating insulin dependent diabetes mellitus [5] | thymocyte proliferation (thymocyte) | preventing or treating systemic lupus erythematosus [6] | inhibiting rejection in vivo in allograft transplantation [7] |
| --- | --- | --- | --- | --- | --- | --- | --- | --- | --- | --- | --- | --- | --- | --- | --- |
| CO[C@H]1C[C@@H]2CC[C@@H](C)[C@@](O)(O2)C(=O)C(=O)N2CCCC[C@H]2C(=O)O[C@H]([C@H](C)C[C@@H]2CC[C@@H](O)[C@H](OC)C2)CC(=O)[C@H](C)/C=C(\C)[C@@H](O)[C@@H](OC)C(=O)[C@H](C)C[C@H](C)/C=C/C=C/C=C/1C [Comparative Example 2] | BDL (key: BDL: Below detection limit (detection limit = 0.006 μg/ml)) | – | – | – | – | – | – | – | – | – | – | – | – | – | – |
| CO[C@H]1C[C@@H]2CC[C@@H](C)[C@@](O)(O2)C(=O)C(=O)N2CCCC[C@H]2C(=O)O[C@H]([C@H](C)C[C@@H]2CC[C@@H](O)[C@H](OC)C2)CC(=O)[C@H](C)/C=C(\C)[C@@H](O)[C@@H](OC)C(=O)[C@H](C)C[C@H](C)/C=C/C=C/C=C/1C [Rapamycin, rapamycin] | – | useful in preventing or treating | adversely affects the growth of fungi | effective | effectively inhibited | immunosuppressive effects | immunosuppressive, antifungal and antiinflammatory activity in vivo | adversely affects the growth of fungi | antitumor activity | useful in preventing or treating | effective | useful in preventing or treating | inhibit thymocyte proliferation in vitro | useful in preventing or treating | effectiveness of rapamycin in inhibiting rejection in vivo in allograft transplantation |
| C=CC[C@@H]1/C=C(\C)C[C@H](C)C[C@H](OC)[C@H]2O[C@@](O)(C(=O)C(=O)N3CCCC[C@H]3C(=O)O[C@H](/C(C)=C/[C@@H]3CC[C@@H](O)[C@H](OC)C3)[C@H](C)[C@@H](O)CC1=O)[C@H](C)C[C@@H]2OC [FK-506] | – | – | – | – | – | effective as immunosuppressive agents | – | – | – | – | – | – | – | – | – |
